Results reported in publication PMC12686454 (EMBO Molecular Medicine, 2025).
Counter-ions that a name gives are not always drawn.

Assays:
[1] = test system: T1, E. coli ATCC 25922; test: microbe, parasite or virus in culture; design: Bacterial growth inhibition, OD600, dose-response in 384-well plates, AC50; details: Escherichia coli, ATCC25922, 24 h
T1 construct: ATCC 25922
Description: (§1) EU-OPENSCREEN provided a subset of 2,464 bioactive compounds from the ECBL pilot library (EU-OPENSCREEN: European Chemical Biology Library - Pilot Library) as 10 mM stock solutions in 100% DMSO. The library was screened in duplicate at a final concentration of 100 μM per well (1% DMSO). The antibacterial single-concentration HTS and dose–response susceptibility assays were conducted in 384-well plates, with bacterial cell density measured by optical density at 600 nm (OD600). Compounds were distributed in duplicate on separate 384-well microtiter plates using an Echo 550® acoustic [compound left out] handler (Beckman Coulter™, Indianapolis, IN) and inoculated with bacteria to a final concentration of 10^6 CFU/mL, with a total assay volume of 25.25 μL. Plates were incubated with shaking for 24 h at 37 °C. Bacterial growth was measured by reading the OD600 using an EnVision™ microplate reader (Revvity, Waltham, MA). The activity of the compounds was expressed as the percentage of bacterial growth inhibition, and it was calculated using the following normalization: %Inhibition=100×1−(TfSample−TOSample)−(TfBlank−TOBlank)/(TfGrowth−TOGrowth)−(TfBlank−TOBlank) Where, T0 Sample is the absorbance of the strain growth in the presence of compound measured at time zero, Tf Sample is the absorbance of the strain growth in the presence of compound measured at final time, T0 Growth is the absorbance of the strain growth in the absence of compound measured at time zero, Tf Growth is the absorbance of the strain growth in the absence of compound measured at final time, T0 Blank is the absorbance of the broth medium (blank) measured at time zero, Tf Blank: the absorbance of the broth medium (blank) measured at final time; T0 is Time at 0 h and Tf is Time at 24 h. We developed and validated a high-throughput screen assay using 2464 bioactive compounds from the EU-OPENSCREEN pilot library, dispensed in 384-well plates at 100 μM final concentration, and the A. baumannii Ab ATCC 17978 and E. coli ATCC 25922 strains, as well as their respective MDR strains (Ab186 and MCR1^+) (Fig. 1A). We identified 33 compounds ([…] of the total compounds) with inhibitory activity of ≥70% against at least one or both MDR strains of Ab186 and E. coli MCR1^+. […] This compound was active against the Ab ATCC 17978 and E. coli ATCC 25922 strains, with AC50 values of 23.57 μM and 46.86 μM, respectively (Fig. 1C).

[2] = test system: T2, A. baumannii Ab ATCC 17978; test: microbe, parasite or virus in culture; design: species or system A. baumannii ATCC 17978; Bacterial growth inhibition, OD600, dose-response in 384-well plates, AC50; details: Acinetobacter baumannii, ATCC17978, 24 h
T2 construct: ATCC 17978
Description: as §1

[3] = molecular target: T3, enolase (AbEnolase) (Acinetobacter baumannii, UniProt A3M5Y1); test: isothermal titration calorimetry ([…] °C, […] protein, […] ENOblock, single-site model, n = […]); format: binding
T3 construct: gene eno; wild-type enolase gene in pET-30a(+) with an N-terminal His6 tag, purified recombinant
T3 sequence (A3M5Y1 whole entry): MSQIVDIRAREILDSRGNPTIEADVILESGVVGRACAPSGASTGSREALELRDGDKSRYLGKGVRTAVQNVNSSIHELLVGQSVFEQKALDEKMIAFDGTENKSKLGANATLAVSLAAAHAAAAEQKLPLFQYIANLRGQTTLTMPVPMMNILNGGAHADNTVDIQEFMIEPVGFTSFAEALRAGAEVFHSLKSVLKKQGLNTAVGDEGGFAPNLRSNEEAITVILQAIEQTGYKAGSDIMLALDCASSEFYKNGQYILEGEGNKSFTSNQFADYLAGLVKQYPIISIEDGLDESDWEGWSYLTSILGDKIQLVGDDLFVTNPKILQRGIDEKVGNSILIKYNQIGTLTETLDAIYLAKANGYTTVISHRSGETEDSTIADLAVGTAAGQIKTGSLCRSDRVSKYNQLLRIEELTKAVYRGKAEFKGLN

Compound	AC50 [1]	AC50 [2]	Kd [3]
CCN1CCN(C(c2ccc(C(F)(F)F)cc2)c2ccc3cccnc3c2O)CC1 (centres unmarked) [EOS100820, ML311]	82.9 µM	32.7 µM	
NC(=S)N/N=C/c1ncccc1N [EOS100248, TRIAPINE]	101 µM	65.7 µM	
Oc1c(Cl)cc(Cl)c2cccnc12 [EOS100951, CHLOROXINE]	10.1 µM	7.47 µM	
COc1cc(NCc2ccc3nc(N)nc(N)c3c2C)cc(OC)c1OC [EOS101467, TRIMETREXATE]	1.99 µM	24.1 µM	
Cc1nc2c(=O)n(C)c(=O)nc-2n(C)n1 [EOS100293, 3-METHYLTOXOFLAVIN]	9.33 µM	14.3 µM	
C=C1c2cccc(O)c2C(=O)C2=C(O)[C@]3(O)C(=O)C(C(N)=O)=C(O)[C@@H](N(C)C)[C@@H]3[C@@H](O)[C@H]12 [EOS100925, METHACYCLINE HYDROCHLORIDE]	95 µM		
O=[N+]([O-])c1ccc(Sc2cccc[n+]2[O-])c2nonc12 [EOS100077, NSC228155]	19.1 µM	32 µM	
C[C@@H]1CCO[C@H]2Cn3cc(C(=O)NCc4ccc(F)cc4F)c(=O)c(O)c3C(=O)N12 [EOS101330, DOLUTEGRAVIR]		21.9 µM	
CCc1nc(N)nc(N)c1-c1ccc(Cl)cc1 [EOS101458, PYRIMETHAMINE]	129 µM		
CC(C)(Cc1ccc2ccccc2c1)NC[C@@H](O)COc1cccc(Cl)c1C#N [EOS101044, NPS-2143]	47.6 µM	27.2 µM	
[O-][n+]1ccccc1S [EOS101921, PYRITHIONE]	17.8 µM	33.9 µM	
Oc1c(Cl)cc(Cl)cc1Sc1cc(Cl)cc(Cl)c1O [EOS101771, BITHIONOL]	42.9 µM	14.6 µM	
C[C@H]1CO[C@@H]2Cn3cc(C(=O)NCc4ccc(F)cc4F)c(=O)c(O)c3C(=O)N12 [EOS100194, CABOTEGRAVIR]		113 µM	
Cc1c2ccncc2c(C)c2c1[nH]c1ccccc12 [EOS100555, ELLIPTICINE]	64 µM	48.9 µM	
Oc1c(Cl)cc(Cl)c(Cl)c1Cc1c(O)c(Cl)cc(Cl)c1Cl [EOS100333, HEXACHLOROPHENE]	37.3 µM	4.77 µM	
Cn1cc(C2=C(c3cn(CCCSC(=N)N)c4ccccc34)C(=O)NC2=O)c2ccccc21 [EOS101001, BISINDOLYLMALEIMIDE IX]	109 µM	48.9 µM	

Compound	AC50 [1]	AC50 [2]	Kd [3]
Oc1cccc2cccnc12 [EOS100874, OXYQUINOLINE]	173 µM	71.9 µM	
COc1ccc(Cc2cnc(N)nc2N)cc1OC [EOS100884, DIAVERIDINE]	1.26 µM		
NCCOCCOCCNC(=O)Cc1ccc(Nc2nc(NCc3ccc(F)cc3)nc(NCC3CCCCC3)n2)cc1 [EOS100979, AP-III-A4(ENOBLOCK)]	46.9 µM	23.6 µM	
CCN1/C(=C/c2ccc3ccccc3[n+]2CC)C=Cc2ccccc21 [EOS102018, DECYNIUM 22]	92.9 µM	54.3 µM	
CC(C)c1cccc(=O)c(O)c1 [EOS100813, HINOKITIOL]	48.3 µM	41 µM	
CN(C)c1ccc(C(=C2C=CC(=[N+](C)C)C=C2)c2ccc(N(C)C)cc2)cc1 [EOS102093, GENTIAN VIOLET]		32.7 µM	
CC(C)C[C@H](NC(=O)[C@H](CCc1ccccc1)NC(=O)CN1CCOCC1)C(=O)N[C@@H](Cc1ccccc1)C(=O)N[C@@H](CC(C)C)C(=O)[C@@]1(C)CO1 [EOS101232, CARFILZOMIB]	31.4 µM		
c1ccc2c(c1)[I+]c1ccccc1-2 [EOS101209, DIPHENYLENEIODONIUM]	2.02 µM	3.09 µM	
Oc1c(I)cc(I)c2cccnc12 [EOS100343, DIIODOHYDROXYQUINOLINE]	55.1 µM	62.8 µM	
Cc1ccc2c(Cl)cc(Cl)c(O)c2n1 [EOS100722, CHLORQUINALDOL]	20.4 µM	42.2 µM	
COc1cc(/C=C/C(O)=C/C(=O)/C=C/c2ccc(O)cc2)ccc1O [EOS100220, DEMETHOXYCURCUMIN]	56.1 µM	51 µM	
NCCOCCOCCNC(=O)Cc1ccc(Nc2nc(NCc3ccc(F)cc3)nc(NCC3CCCCC3)n2)cc1 [ENOblock]			2.9 ± 0.78 µM
C/C(=N\N=C(N)N)c1cc(NC(=O)CCCCCCCCC(=O)Nc2cc(/C(C)=N/N=C(N)N)cc(/C(C)=N/N=C(N)N)c2)cc(/C(C)=N/N=C(N)N)c1 [EOS101827, SEMAPIMOD]	7.07 µM	23.2 µM	
c1ccc(-c2cccc(-c3ccccn3)n2)nc1 [EOS102213, TERPYRIDINE]	52.3 µM	13.1 µM	
O=S(=O)(NCCNC/C=C/c1ccc(Br)cc1)c1cccc2cnccc12 [EOS101763, H-89 DIHYDROCHLORIDE]	65.9 µM		
